Experiments:
[1] = biological target: T1, alpha4-beta7 (Homo sapiens, UniProt P13612+P26010); assay: Alpha4-Beta7 Assay (MadCAM/RPMI 8866 cell adhesion); format: cell-based; conditions: calcein labeled RPMI 8866 cells adhering to immobilized MadCAM
T1 construct: Sufficient RPMI 8866 cells were removed from stock for assay; endogenous in cells; host or cells: RPMI 8866 cells
T1 sequence (P13612 34-1032): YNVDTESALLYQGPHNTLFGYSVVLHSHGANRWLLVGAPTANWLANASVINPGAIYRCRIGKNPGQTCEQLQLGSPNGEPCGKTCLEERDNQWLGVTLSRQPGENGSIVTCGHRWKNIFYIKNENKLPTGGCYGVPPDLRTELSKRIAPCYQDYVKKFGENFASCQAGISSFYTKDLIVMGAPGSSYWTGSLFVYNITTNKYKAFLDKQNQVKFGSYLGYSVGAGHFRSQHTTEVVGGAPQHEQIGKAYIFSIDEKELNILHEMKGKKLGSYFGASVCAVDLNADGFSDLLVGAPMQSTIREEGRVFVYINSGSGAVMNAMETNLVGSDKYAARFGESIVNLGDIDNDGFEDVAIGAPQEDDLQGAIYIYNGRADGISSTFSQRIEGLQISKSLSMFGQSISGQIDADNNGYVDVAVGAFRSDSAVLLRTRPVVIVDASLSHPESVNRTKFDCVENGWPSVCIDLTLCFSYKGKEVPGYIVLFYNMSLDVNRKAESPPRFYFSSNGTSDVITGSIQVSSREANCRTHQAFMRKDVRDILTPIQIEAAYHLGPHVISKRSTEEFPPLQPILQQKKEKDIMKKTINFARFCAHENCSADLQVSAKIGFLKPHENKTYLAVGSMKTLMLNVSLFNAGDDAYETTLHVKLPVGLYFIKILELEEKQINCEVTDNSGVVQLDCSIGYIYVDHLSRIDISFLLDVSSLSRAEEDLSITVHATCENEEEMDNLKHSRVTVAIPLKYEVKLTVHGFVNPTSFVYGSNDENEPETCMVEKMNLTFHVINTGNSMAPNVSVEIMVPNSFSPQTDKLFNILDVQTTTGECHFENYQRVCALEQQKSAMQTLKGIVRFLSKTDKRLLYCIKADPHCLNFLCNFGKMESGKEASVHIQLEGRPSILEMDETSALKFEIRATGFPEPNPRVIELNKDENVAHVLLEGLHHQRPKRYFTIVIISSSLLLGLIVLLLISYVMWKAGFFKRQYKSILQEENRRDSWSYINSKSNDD
T1 sequence (P26010 20-798): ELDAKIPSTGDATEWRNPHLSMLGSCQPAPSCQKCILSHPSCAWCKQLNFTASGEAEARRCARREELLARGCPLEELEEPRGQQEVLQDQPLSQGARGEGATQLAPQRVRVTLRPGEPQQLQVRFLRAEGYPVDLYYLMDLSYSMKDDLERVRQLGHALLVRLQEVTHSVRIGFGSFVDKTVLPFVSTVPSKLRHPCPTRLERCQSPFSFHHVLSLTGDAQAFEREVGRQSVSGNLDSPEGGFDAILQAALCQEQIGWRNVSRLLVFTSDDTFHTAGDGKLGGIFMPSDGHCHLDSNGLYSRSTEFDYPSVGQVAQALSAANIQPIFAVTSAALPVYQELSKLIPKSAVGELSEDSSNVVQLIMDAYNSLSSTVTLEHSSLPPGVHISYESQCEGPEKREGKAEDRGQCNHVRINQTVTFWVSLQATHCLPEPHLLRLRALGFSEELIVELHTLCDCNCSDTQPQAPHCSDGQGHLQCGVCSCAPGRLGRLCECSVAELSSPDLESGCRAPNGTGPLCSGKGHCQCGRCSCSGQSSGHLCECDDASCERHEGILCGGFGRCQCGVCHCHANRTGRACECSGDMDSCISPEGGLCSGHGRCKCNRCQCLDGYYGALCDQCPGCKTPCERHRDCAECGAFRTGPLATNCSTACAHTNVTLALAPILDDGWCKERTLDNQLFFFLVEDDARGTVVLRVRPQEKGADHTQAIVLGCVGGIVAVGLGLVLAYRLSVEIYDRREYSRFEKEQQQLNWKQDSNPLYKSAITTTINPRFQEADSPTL
Description: Alpha4-Beta7 Assay Protocol
Two weeks to one day prior to the assay, Nunc high-binding F96 Maxisorp immuno plates, #442404 or #439454, were coated with 25 ng/well (0.25 μg/ml) MadCAM in a volume of 100 μl/well. The plates were covered with sealer and wrapped in saran wrap followed by incubation in the refrigerator for at least 24 hours. The coating buffer employed was: 10 mM carbonate/bicarbonate buffer made up from: 0.8 g/L sodium carbonate and 1.55 g/L sodium bicarbonate adjusted to pH 9.6 with 1 N HCl. Assay buffers consisted of the following:
Plates were washed 2× with wash buffer and then blocked at room temperature for at least 1 hour with Blocking Buffer. Sealed plates were sometimes blocked overnight in the refrigerator. Plates were then washed with PBS and hand blotted dry. Remaining liquid was aspirated from the wells.
Sufficient RPMI 8866 cells were removed from stock for assay (2×10^6 cells/ml×10 ml/plate×number of plates) and placed in a centrifuge tube. The tubes were filled to volume with PBS and were spun at 200×G for 8 minutes. The buffer was poured off and the cells were resuspended to 10×10^6/ml in PBS and a stock solution of calcein in DMSO (5mg/mL) was added at 51 μl/ml of cell suspension. The suspension was incubated for 30 minutes at 37° C. in dark. The cells were then washed with PBS. The PBS was poured off and the cells resuspended in cell buffer at a concentration of 2×10^6 cells/mL for plating in the assay.
Stock solution of test compounds at 25× first dilution desired in 100% DMSO were prepared. First dilutions for the standard, as well as test compounds, were 1:25 into straight Binding Buffer, while the remaining serial dilutions were into Dilution Buffer (Binding Buffer/4% DMSO). Stock concentrations and dilutions of compounds for screening were determined by anticipated activity.
For the assay, 129 μl Binding Buffer was plated into first row of wells and 100 μl Dilution Buffer was plated into remaining wells. A 5.44 μl aliquot of each compound was pipetted into appropriate, labeled wells, in triplicate. The compounds were next diluted down the plate (34 μl+100 μl=>4-fold dilution). For controls, 100 μl of Dilution Buffer 100 μl Cell Buffer were plated into the nonspecific background wells (no cells, no compound) and 100 μl Dilution Buffer+100 μl cells were plated into the total binding wells (no compound=100% binding). Labeled cells at 2×10^6 cells/ml, 100 μl/well (=2×10^5 cells/well) were added to each well containing compound. The plates were sealed and incubated in the dark for 45 minutes at room temperature. Following incubation, unbound cells were removed by adding 150 μl PBS/well. The plates were inverted, blotted onto paper towels and washed by gently adding 200 μl PBS to wells and blotting again. Remaining buffer was carefully aspirated from the wells. A final 100 μl PBS was added to each well.
The plates were then read for fluorescence intensity on a Cytofluor 2300 (Millipore) fluorecence measurement system (excitation=485 nm, emission=530 nm). IC50s of each compound were determined by linear regression analysis.

Structure (SMILES): Cc1c(-c2ccc(C[C@H](NC(=O)c3c(Cl)cccc3Cl)C(=O)O)cc2)c(=O)n(C)c(=O)n1C [Example 6, N-[(2,6-dichlorophenyl)carbonyl]-4-(1,3,6-trimethyl-2,4-dioxo-5-pyrimidinyl)-L-phenylalanine]
- IC50 [1]: < 0.1 µM

Structure (SMILES): COCCC1(C(=O)N[C@@H](Cc2ccc(-c3c(C)n(C)c(=O)n(C)c3=O)cc2)C(=O)O)CCCC1 [Example 7, N-[[1-(2-methoxyethyl)cyclopentyl]carbonyl]-4-(1,3,6-trimethyl-2,4-dioxo-5-pyrimidinyl)-L-phenylalanine]
- IC50 [1]: < 0.1 µM

Structure (SMILES): Cc1cccc(Br)c1C(=O)N[C@@H](Cc1ccc(-c2c(C)n(C)c(=O)n(C)c2=O)cc1)C(=O)O [Example 8, N-[(2-bromo-6-methylphenyl)carbonyl]-4-(1,3,6-trimethyl-2,4-dioxo-5-pyrimidinyl)-L-phenylalanine]
- IC50 [1]: < 0.1 µM
- melting point: 240 to 242 °C

Structure (SMILES): Cc1cccc(Cl)c1C(=O)N[C@@H](Cc1ccc(-c2c(C)n(C)c(=O)n(C)c2=O)cc1)C(=O)O [Example 9, N-[(2-chloro-6-methylphenyl)carbonyl]-4-(1,3,6-trimethyl-2,4-dioxo-5-pyrimidinyl)-L-phenylalanine]
- IC50 [1]: < 0.1 µM

Structure (SMILES): CCc1cccc(C)c1C(=O)N[C@@H](Cc1ccc(-c2c(C)n(C)c(=O)n(C)c2=O)cc1)C(=O)O [Example 10, N-[(2-ethyl-6-methylphenyl)carbonyl]-4-(1,3,6-trimethyl-2,4-dioxo-5-pyrimidinyl)-L-phenylalanine]
- IC50 [1]: < 10 µM
- melting point: 127 to 133 °C

Structure (SMILES): Cc1cccc(C(C)C)c1C(=O)N[C@@H](Cc1ccc(-c2c(C)n(C)c(=O)n(C)c2=O)cc1)C(=O)O [Example 11, N-[[2-(2-methylethyl)-6-methylphenyl]carbonyl]-4-(1,3,6-trimethyl-2,4-dioxo-5-pyrimidinyl)-L-phenylalanine]
- IC50 [1]: < 5 µM

Structure (SMILES): Cc1c(-c2ccc(C[C@H](NC(=O)c3c(F)cccc3F)C(=O)O)cc2)c(=O)n(C)c(=O)n1C [Example 12, N-[(2,6-difluorophenyl)carbonyl]-4-(1,3,6-trimethyl-2,4-dioxo-5-pyrimidinyl)-L-phenylalanine]
- IC50 [1]: < 0.1 µM

Structure (SMILES): Cc1c(-c2ccc(C[C@H](NC(=O)c3c(F)cccc3C(F)(F)F)C(=O)O)cc2)c(=O)n(C)c(=O)n1C [Example 13, N-[(2-fluoro-6-(trifluoromethyl)phenyl)carbonyl]-4-(1,3,6-trimethyl-2,4-dioxo-5-pyrimidinyl)-L-phenylalanine]
- IC50 [1]: < 10 µM
- melting point: 218 to 220 °C

Structure (SMILES): Cc1c(-c2ccc(C[C@H](NC(=O)c3c(C(C)C)cccc3C(C)C)C(=O)O)cc2)c(=O)n(C)c(=O)n1C [Example 14, N-[[2,6-di-(2-methylethyl)phenyl]carbonyl]-4-(1,3,6-trimethyl-2,4-dioxo-5-pyrimidinyl)-L-phenylalanine]
- IC50 [1]: < 5 µM

Structure (SMILES): CCc1cccc(Cl)c1C(=O)N[C@@H](Cc1ccc(-c2c(C)n(C)c(=O)n(C)c2=O)cc1)C(=O)O [Example 15, N-[(2-chloro-6-ethylphenyl)carbonyl]-4-(1,3,6-trimethyl-2,4-dioxo-5-pyrimidinyl)-L-phenylalanine]
- IC50 [1]: < 10 µM
- melting point: 187 to 190 °C

Structure (SMILES): CCCc1cccc(Cl)c1C(=O)N[C@@H](Cc1ccc(-c2c(C)n(C)c(=O)n(C)c2=O)cc1)C(=O)O [Example 16, N-[(2-chloro-6-propylphenyl)carbonyl]-4-(1,3,6-trimethyl-2,4-dioxo-5-pyrimidinyl)-L-phenylalanine]
- IC50 [1]: < 10 µM
- melting point: 225 to 227 °C

Structure (SMILES): CCn1c(C)c(-c2ccc(C[C@H](NC(=O)c3c(Cl)cccc3Cl)C(=O)O)cc2)c(=O)n(CC)c1=O [Example 18, N-[(2,6-dichlorophenyl)carbonyl]-4-(1,3-diethyl-6-methyl-2,4-dioxo-5-pyrimidinyl)-L-phenylalanine]
- IC50 [1]: < 0.1 µM

Structure (SMILES): CCn1c(C)c(-c2ccc(C[C@H](NC(=O)c3c(C)cccc3Cl)C(=O)O)cc2)c(=O)n(CC)c1=O [Example 19, N-[(2-chloro-6-methylphenyl)carbonyl]-4-(1,3-diethyl-6-methyl-2,4-dioxo-5-pyrimidinyl)-L-phenylalanine]
- IC50 [1]: < 10 µM

Structure (SMILES): CCn1c(C)c(-c2ccc(C[C@H](NC(=O)C3(CCOC)CCCC3)C(=O)O)cc2)c(=O)n(CC)c1=O [Example 20, 4-(1,3-diethyl-6-methyl-2,4-dioxo-5-pyrimidinyl)-N-[[1-(2-methoxyethyl)cyclopentyl]carbonyl]-L-phenylalanine]
- IC50 [1]: < 10 µM

Structure (SMILES): Cc1cc(C[C@H](NC(=O)c2c(Cl)cccc2Cl)C(=O)O)ccc1-c1cn(C)c(=O)n(C)c1=O [Example 25, N-[(2,6-dichlorophenyl)carbonyl]-4-(1,3-dimethyl-2,4-dioxo-5-pyrimidinyl)-3-methyl-L-phenylalanine]
- IC50 [1]: < 10 µM

Structure (SMILES): Cc1cc(C[C@H](NC(=O)c2c(Cl)cccc2Cl)C(=O)O)ccc1-c1c(C)n(C)c(=O)n(C)c1=O [Example 26, N-[(2,6-dichlorophenyl)carbonyl]-4-(1,3,6-trimethyl-2,4-dioxo-5-pyrimidinyl)-3-methyl-L-phenylalanine]
- IC50 [1]: < 10 µM

Structure (SMILES): CCOC(=O)[C@H](Cc1ccc(-c2c(C)n(C)c(=O)n(C)c2=O)cc1)NC(=O)c1c(Cl)cccc1Cl [Example 27, N-[(2,6-dichlorophenyl)carbonyl]-4-(1,3,6-trimethyl-2,4-dioxo-5-pyrimidinyl)-L-phenylalanine ethyl ester]
- IC50 [1]: < 10 µM
